Test results from PMC4822204 (Biomolecular Detection and Quantification, 2015).
Values belong to the compound of their own block, whether it stands above or below them.

What was measured:
Assay type in all cases: biochemical
[1] = molecular target: T1, alkaline phosphatase from bovine intestine (Bos taurus, UniProt P19111); test: AP fluorometric assay; settings: for Hill coefficient / kcat / Km / Vmax: hydrolysis of DiFMUP by AP; for Km / Vmax / IC50 / apparent AP Vmax: ± 95% confidence interval; for IC50: 60 min; for apparent AP Vmax: substrate DiFMUP
Target sequence in this assay (P19111 20-506 limits assumed): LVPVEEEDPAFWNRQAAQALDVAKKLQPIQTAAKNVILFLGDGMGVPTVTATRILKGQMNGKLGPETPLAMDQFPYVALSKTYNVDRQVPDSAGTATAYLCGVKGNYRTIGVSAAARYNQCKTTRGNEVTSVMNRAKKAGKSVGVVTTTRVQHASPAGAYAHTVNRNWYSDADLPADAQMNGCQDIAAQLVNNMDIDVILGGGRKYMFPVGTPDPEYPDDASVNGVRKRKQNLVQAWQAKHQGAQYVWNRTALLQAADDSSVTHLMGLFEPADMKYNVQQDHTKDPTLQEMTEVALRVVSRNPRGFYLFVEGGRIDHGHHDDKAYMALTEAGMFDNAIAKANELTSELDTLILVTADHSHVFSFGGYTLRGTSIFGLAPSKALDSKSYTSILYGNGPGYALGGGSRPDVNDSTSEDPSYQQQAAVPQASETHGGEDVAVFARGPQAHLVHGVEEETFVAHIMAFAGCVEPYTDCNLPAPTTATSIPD

[2] = molecular target: T1, alkaline phosphatase from bovine intestine; test: AP colorimetric assay; settings: detergent at two concentrations above its critical micelle concentration
Target sequence in this assay (P19111 20-533): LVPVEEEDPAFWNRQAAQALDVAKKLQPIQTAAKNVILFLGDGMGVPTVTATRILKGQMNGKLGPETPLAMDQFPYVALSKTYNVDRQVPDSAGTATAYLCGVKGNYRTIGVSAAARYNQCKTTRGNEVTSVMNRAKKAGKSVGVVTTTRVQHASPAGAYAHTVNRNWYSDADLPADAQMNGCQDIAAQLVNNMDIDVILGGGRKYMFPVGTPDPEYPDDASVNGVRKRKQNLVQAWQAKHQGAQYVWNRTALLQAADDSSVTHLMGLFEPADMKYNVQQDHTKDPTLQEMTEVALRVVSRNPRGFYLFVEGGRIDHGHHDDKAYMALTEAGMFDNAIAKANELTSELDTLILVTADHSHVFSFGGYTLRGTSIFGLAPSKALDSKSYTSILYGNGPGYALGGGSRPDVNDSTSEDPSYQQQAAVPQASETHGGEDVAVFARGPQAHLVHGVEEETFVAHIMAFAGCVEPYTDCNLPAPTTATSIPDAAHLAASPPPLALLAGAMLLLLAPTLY

[3] = tested on: alkaline phosphatase from bovine intestine; test: Reversibility test by rapid dilution of the enzyme-inhibitor complex

decrease in reaction velocity ([1]; DMSO concentrations up to 1.5%): less than 10%
Compound: C[S+](C)[O-] [DMSO]

increase in AP activity [2]: up to 40%
Compound: C[C@H](CCC(=O)NCCC[N+](C)(C)CCCS(=O)(=O)[O-])[C@H]1CC[C@H]2[C@@H]3[C@H](O)C[C@@H]4C[C@H](O)CC[C@]4(C)[C@H]3C[C@H](O)[C@]12C [CHAPS]

Hill coefficient ([1]; pH 6.5, 37 °C): 1
kcat ([1]; pH 6.5, 37 °C): 37 s⁻¹
Km ([1]; pH 6.5, 37 °C): 0.2 ± 0.04 µM
Vmax ([1]; pH 6.5, 37 °C): 32 ± 2 µmol/min/mg
Hill coefficient ([1]; pH 7.0, 37 °C): 1
kcat ([1]; pH 7.0, 37 °C): 82 s⁻¹
Km ([1]; pH 7.0, 37 °C): 0.5 ± 0.04 µM
Vmax ([1]; pH 7.0, 37 °C): 71 ± 3 µmol/min/mg
Hill coefficient ([1]; pH 7.5, 37 °C): 1
kcat ([1]; pH 7.5, 37 °C): 147 s⁻¹
Km ([1]; pH 7.5, 37 °C): 1.4 ± 0.2 µM
Vmax ([1]; pH 7.5, 37 °C): 126 ± 3 µmol/min/mg
Hill coefficient ([1]; pH 8.0, 37 °C): 1
kcat ([1]; pH 8.0, 37 °C): 211 s⁻¹
Km ([1]; pH 8.0, 37 °C): 2.8 ± 0.1 µM
Vmax ([1]; pH 8.0, 37 °C): 181 ± 1 µmol/min/mg
Compound: Cc1cc(=O)oc2c(F)c(OP(=O)(O)O)c(F)cc12 [DiFMUP, 6,8-difluoro-4-methylumbelliferyl phosphate]

increase in AP activity [2]: up to 40%
Compound: Tween 20

increase in AP activity [2]: up to 40%
Compound: Triton X-100

reversibility of inhibition [3]: rapidly reversible
IC50 ([1]; 0.025 μM DiFMUP, pH 6.5, 37 °C): 1 ± 0.4 µM
IC50 ([1]; 0.050 μM DiFMUP, pH 6.5, 37 °C): 1.5 ± 0.4 µM
IC50 ([1]; 0.100 μM DiFMUP, pH 6.5, 37 °C): 1.6 ± 0.3 µM
IC50 ([1]; 0.200 μM DiFMUP, pH 6.5, 37 °C): 2.3 ± 0.4 µM
IC50 ([1]; 0.400 μM DiFMUP, pH 6.5, 37 °C): 4 ± 0.4 µM
IC50 ([1]; 0.800 μM DiFMUP, pH 6.5, 37 °C): 6.1 ± 0.9 µM
IC50 ([1]; 1.600 μM DiFMUP, pH 6.5, 37 °C): 11 ± 3 µM
mode of inhibition ([1]; IC50 rises with DiFMUP concentration, apparent KM but not Vmax rises): competitive
apparent AP Vmax ([1]; Na3VO4 0.084 μM): 567 ± 18 RFU min^−1
apparent AP Vmax ([1]; Na3VO4 0.250 μM): 561 ± 35 RFU min^−1
apparent AP Vmax ([1]; Na3VO4 0.760 μM): 566 ± 24 RFU min^−1
apparent AP Vmax ([1]; Na3VO4 2.28 μM): 546 ± 32 RFU min^−1
apparent AP Vmax ([1]; Na3VO4 6.68 μM): 513 ± 53 RFU min^−1
Compound: [Na+].[Na+].[Na+].[O]=[V]([O-])([O-])[O-] [Na3VO4, sodium orthovanadate]
